The target in assay [1] is T1, IDO1 (Homo sapiens, UniProt P14902). Put plainly: IDO1 enzymatic assay. The conditions noted are these: read-out: Enzyme IC50 IDO1. Also on record: His tag (N); made in house; host or cells: E. coli. It is filed as biochemical. The method in brief:
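Recombinant N-terminally His-tagged IDO1 purified from E. coli (50 nM) was incubated with compound or DMSO and 1.3 mM D-tryptophan, 5 mM L-ascorbic acid, methylene blue and 0.4 mg/mL catalase. The buffer was 50 mM potassium phosphate pH 7.5 with 0.1% BSA, at 24 °C for 1.5 hours. N'-formylkynurenine formation was then read continuously at 321 nm for 1 hour, and activity was taken as the slope. IC50 was calculated from remaining enzyme activity across increasing compound concentrations.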

Assay [2] concerns the target T2, cellular TDO2 in HEK293-TDO2 cells (Homo sapiens, UniProt P48775).
T2 construct: expressed in transfected cells; host or cells: HEK293 (ATCC), stably transfected
The experiment in a line: 293-TDO2 cell-based assay (Kyn colorimetric). As to conditions: 48 hours of incubation. The method in brief: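 HEK293 cells stably expressing TDO2 (10000/well, phenol red-free DMEM, 10% FBS) were dosed 4 h after plating and incubated 48 h at 37° C. Supernatant Kyn was measured after TCA precipitation by 4-(dimethylamino)benzaldehyde colour at 480 nm. IC50 came from four-parameter logistic fits.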

Assay [3] deals with T1, IDO1. The experiment in a line: Hela cell-based IDO1 assay. The conditions noted are these: Hela cells. In short, it runs like this: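 HeLa cells were plated at 8000 per well in 96-well plates containing phenol red-free DMEM with 10% FBS, and after 4 hours compound dilutions made in DMSO were added together with IFN-γ (final 100 ng/mL) and 0.4 mM L-Trp before 48 hours at 37 °C, 5% CO2. Supernatants were deproteinised with trichloroacetic acid, mixed with 2% 4-(dimethylamino)benzaldehyde and read at 480 nm for kynurenine. Four-parameter logistic fits were run in XLfit. Potency was derived from these fits.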

Structures can show the parent of a compound that is named as a salt.

By IC50 is commonly meant the concentration that inhibits the measured activity by half. One may read the EC50 as the concentration giving half of the maximal effect.

T2 sequence (P48775 whole entry): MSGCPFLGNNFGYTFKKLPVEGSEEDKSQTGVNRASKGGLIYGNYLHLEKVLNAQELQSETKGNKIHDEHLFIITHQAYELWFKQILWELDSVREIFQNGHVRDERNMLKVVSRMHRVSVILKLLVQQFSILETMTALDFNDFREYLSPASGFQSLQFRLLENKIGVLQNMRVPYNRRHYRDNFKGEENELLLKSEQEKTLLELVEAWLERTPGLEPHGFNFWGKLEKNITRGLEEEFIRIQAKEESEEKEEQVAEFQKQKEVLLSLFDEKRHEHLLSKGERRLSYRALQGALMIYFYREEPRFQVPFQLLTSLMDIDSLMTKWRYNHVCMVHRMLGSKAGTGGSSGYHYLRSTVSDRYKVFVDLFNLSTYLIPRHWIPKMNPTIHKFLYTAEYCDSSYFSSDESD
T1 sequence (P14902 whole entry): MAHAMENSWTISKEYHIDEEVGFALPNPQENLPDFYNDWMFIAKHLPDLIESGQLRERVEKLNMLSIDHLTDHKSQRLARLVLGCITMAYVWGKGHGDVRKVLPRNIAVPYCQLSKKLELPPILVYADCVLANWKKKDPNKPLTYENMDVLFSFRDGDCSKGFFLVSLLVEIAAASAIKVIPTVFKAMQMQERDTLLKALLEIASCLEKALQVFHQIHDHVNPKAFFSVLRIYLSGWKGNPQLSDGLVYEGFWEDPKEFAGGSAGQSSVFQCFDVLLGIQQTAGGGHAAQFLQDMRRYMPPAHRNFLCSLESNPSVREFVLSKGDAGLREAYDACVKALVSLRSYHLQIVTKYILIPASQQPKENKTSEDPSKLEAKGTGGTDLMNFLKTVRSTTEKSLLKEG

As to `O[C@@H](c1c(C2CC2)ccc2cncn12)[C@H]1CC[C@H](c2cccc3ccccc32)CC1` (single isomer, unassigned) [Example D135b], in assay [1], the IC50 came out at 5200 nM. The EC50 in assay [2] was > 10000 nM; in assay [3], 6750 nM.

With `O[C@@H](c1c(C2CC2)ccc2cncn12)[C@H]1CC[C@H](c2ccc(F)cc2F)CC1` (single isomer, unassigned) [Example D127b], in assay [1], the IC50 came to 2700 nM. Also, the EC50 is > 10000 nM in assay [2] and 4620 nM in assay [3].

`OC(c1c(C2CC2)ccn2cncc12)C1CCC(c2ccnc3ccc(F)cc23)CC1` (stereo not drawn) [Example C128, (7-cyclopropylimidazo[1,5-a]pyridin-8-yl)(4-(6-fluoroquinolin-4-yl)cyclohexyl)methanol]: the concentration for half-maximal inhibition (IC50) in assay [1] is 39 nM. Besides, the figures for the EC50 in assay [2] and in assay [3] were > 10000 nM and 51 nM, respectively.

On to `OC(c1c(C2CC2)ccn2cncc12)C1CCC(c2cccc3ccccc23)CC1` (stereo not drawn) [Example C121, (7-cyclopropylimidazo[1,5-a]pyridin-8-yl)(4-(naphthalen-1-yl)cyclohexyl)methanol], for which, in assay [1], the IC50 amounted to 94 nM. For the same molecule, the EC50 is > 10000 nM in assay [2] and 125 nM in assay [3].

In the case of `O[C@@H](c1c(C2CC2)ccn2cncc12)[C@H]1CC[C@H](c2cccc3ccccc32)CC1` (single isomer, unassigned) [Example C121b], in assay [1], the IC50 was 1500 nM. Besides, the EC50 in assay [2] and in assay [3] was > 10000 nM throughout.

As for `COc1ccc([C@H]2CC[C@H](C(O)c3c(C4CC4)ccc4cncn34)CC2)cc1Cl` (single isomer, unassigned) [Example D148b, hydrochloride], the IC50 in assay [1] was > 10000 nM. Further, the concentration for a half-maximal effect (EC50) in assay [2] was > 10000 nM; in assay [3] it was 7010 nM.

As to `OC(c1c(C2CC2)ccn2cncc12)C1CCN(C2CC2)CC1` (stereo not drawn) [Example C139, (7-cyclopropylimidazo[1,5-a]pyridin-8-yl)(1-cyclopropylpiperidin-4-yl)methanol], the half-inhibitory concentration (IC50) in assay [1] turned out to be 890 nM. The EC50 in assay [2] and in assay [3] was > 10000 nM each time.

For `COc1cccc([C@H]2CC[C@H]([C@@H](O)c3c(C(C)C)ccc4cncn34)CC2)c1` (single isomer, unassigned) [Example D169b], in assay [1], the IC50 worked out at 7500 nM. The concentration giving a half-maximal response (EC50) was > 10000 nM in assay [2] and 5950 nM in assay [3].

In the case of `O[C@@H](c1c(C2CC2)ccc2cncn12)[C@H]1CC[C@H](c2ccnc3ccc(F)cc32)CC1` (single isomer, unassigned) [Example D150b], the half-maximal inhibitory concentration (IC50) in assay [1] turned out to be 1400 nM. Also, the results for the EC50 in assay [2] and in assay [3] were > 10000 nM and 1100 nM, respectively.

Turning to `OC(c1c(C2CC2)ccn2cncc12)C1CCN(c2ccc(F)c3cccnc23)CC1` (stereo not drawn) [Example C155, (7-cyclopropylimidazo[1,5-a]pyridin-8-yl)(1-(5-fluoroquinolin-8-yl)piperidin-4-yl)methanol], the IC50 in assay [1] came to 61 nM. For the same molecule, the EC50 is > 10000 nM in assay [2] and 149 nM in assay [3].

Consider `OC(c1c(C2CC2)ccc2cncn12)C1CCC(c2ccc(Cl)cc2)CC1` (stereo not drawn) [Example D103, (4-(4-chlorophenyl)cyclohexyl)(6-cyclopropylimidazo[1,5-a]pyridin-5-yl)methanol], for which the IC50 in assay [1] stood at 38 nM. The EC50 in assay [2] is > 10000 nM; in assay [3], 163 nM.

For `O[C@H](c1c(C2CC2)ccc2cncn12)C1CCN(c2ccc(F)c3ncccc23)CC1` (single isomer, unassigned) [Example D175a], the IC50 in assay [1] came to 12 nM. Also, the EC50 in assay [2] is > 10000 nM; in assay [3] it was 7.7 nM.

Turning to `OC(c1cc(Cl)cc2cncn12)C1CCC(c2ccc(Cl)cc2)CC1` (stereo not drawn) [Example E101, (7-chloroimidazo[1,5-a]pyridin-5-yl)(4-(4-chlorophenyl)cyclohexyl)methanol], in assay [1], the IC50 came to 62 nM. Besides, the half-maximal effective concentration (EC50) was > 10000 nM in assay [2] and 6310 nM in assay [3].

As to `OC(c1c(C2CC2)ccc2cncn12)C1CCC(c2ccc(F)c3ccccc23)CC1` (stereo not drawn) [Example D137, (6-cyclopropylimidazo[1,5-a]pyridin-5-yl)(4-(4-fluoronaphthalen-1-yl)cyclohexyl)methanol], the IC50 in assay [1] is 62 nM. In addition, the EC50 was > 10000 nM in assay [2] and 98 nM in assay [3].

`OC(c1c(C2CC2)ccc2cncn12)C1CCC(c2ccc(F)cc2)CC1` (stereo not drawn) [Example D104, (6-cyclopropylimidazo[1,5-a]pyridin-5-yl)(4-(4-fluorophenyl)cyclohexyl)methanol]: the IC50 in assay [1] is 33 nM. Further, the EC50 in assay [2] was > 10000 nM; in assay [3] it was 44 nM.

As for `CC(=O)c1ccc(C2CCC(C(O)c3c(C4CC4)ccc4cncn34)CC2)cc1` (stereo not drawn) [Example D158], the IC50 in assay [1] was 58 nM. For the same molecule, the values for the EC50 in assay [2] and in assay [3] were > 10000 nM and 836 nM, respectively.

`O[C@@H](c1c(C2CC2)ccn2cncc12)[C@H]1CC[C@H](c2ccnc3ccccc32)CC1` (single isomer, unassigned) [Example C130b]: the IC50 in assay [1] was 2500 nM. Also, the EC50 in assay [2] is > 10000 nM; in assay [3] it was 6220 nM.

As for `OC(c1c(C2CC2)ccc2cncn12)C1CCC(c2ccc3cccnc3c2)CC1` (stereo not drawn) [Example D161, (6-cyclopropylimidazo[1,5-a]pyridin-5-yl)(4-(quinolin-7-yl)cyclohexyl)methanol], the IC50 in assay [1] was 34 nM. Moreover, the EC50 in assay [2] was > 10000 nM; in assay [3], 263 nM.

Consider `OC(c1c(C2CC2)ccc2cncn12)[C@H]1CC[C@H](c2csc3ccccc32)CC1` (single isomer, unassigned) [Example D155a], for which the IC50 in assay [1] is 28 nM. For the same molecule, the EC50 in assay [2] was > 10000 nM; in assay [3], 27 nM.

For the molecule `COc1ccc([C@H]2CC[C@H](C(O)c3c(C4CC4)ccc4cncn34)CC2)c2ccccc12` (single isomer, unassigned) [Example D139a], in assay [1], the 50% inhibitory concentration (IC50) came to 33 nM. In addition, the EC50 in assay [2] was > 10000 nM; in assay [3], 443 nM.

As to `O[C@@H](c1c(C2CC2)ccn2cncc12)[C@H]1CC[C@H](c2ccc(F)cc2)CC1` (single isomer, unassigned) [Example C107b], in assay [1], the IC50 is 5100 nM. The EC50 in assay [2] and in assay [3] was > 10000 nM in each case.

Consider `OC(c1c(C2CC2)ccc2cncn12)C1CCC(c2ccc(Cl)cc2F)CC1` (stereo not drawn) [Example D131, (4-(4-chloro-2-fluorophenyl)cyclohexyl)(6-cyclopropylimidazo[1,5-a]pyridin-5-yl)methanol], for which the IC50 in assay [1] was found to be 47 nM. In addition, the EC50 in assay [2] was > 10000 nM; in assay [3] it was 578 nM.

In the case of `Nc1ccc(C2CCC(C(O)c3c(C4CC4)ccc4cncn34)CC2)cc1` (stereo not drawn) [Example D122, (4-(4-aminophenyl)cyclohexyl)(6-cyclopropylimidazo[1,5-a]pyridin-5-yl)methanol], the IC50 in assay [1] was 28 nM. The EC50 was > 10000 nM in assay [2] and 228 nM in assay [3].

As to `OC(c1c(C2CC2)ccc2cncn12)C1CCC(c2ccc3ncccc3c2)CC1` (stereo not drawn) [Example D157, (6-cyclopropylimidazo[1,5-a]pyridin-5-yl)(4-(quinolin-6-yl)cyclohexyl)methanol], in assay [1], the IC50 came to 31 nM. For the same molecule, the figures for the EC50 in assay [2] and in assay [3] were > 10000 nM and 75 nM, respectively.

Consider `OC(c1c(C2CC2)ccc2cncn12)C1CCC(c2csc3ccccc23)CC1` (stereo not drawn) [Example D155, (4-(benzo[b]thiophen-3-yl)cyclohexyl)(6-cyclopropylimidazo[1,5-a]pyridin-5-yl)methanol], for which the IC50 in assay [1] is 70 nM. Also, the values for the EC50 in assay [2] and in assay [3] were > 10000 nM and 87 nM, respectively.

For the molecule `O[C@H](c1c(C2CC2)ccc2cncn12)[C@H]1CC[C@H](c2ccc3ncccc3c2)CC1` (single isomer, unassigned) [Example D157a], the IC50 in assay [1] worked out at 15 nM. The figures for the EC50 in assay [2] and in assay [3] were > 10000 nM and 52 nM, respectively.

`OC(c1c(C2CC2)ccc2cncn12)[C@H]1CC[C@H](c2ccc(Cl)cc2F)CC1` (single isomer, unassigned) [Example D131a]: the IC50 in assay [1] was determined as 32 nM. Further, the concentration giving a half-maximal response (EC50) is > 10000 nM in assay [2] and 275 nM in assay [3].

Take `OC(c1c(C2CC2)ccn2cncc12)C1CCN(c2ccccc2)CC1` (stereo not drawn) [Example C136, (7-cyclopropylimidazo[1,5-a]pyridin-8-yl)(1-phenylpiperidin-4-yl)methanol]: the IC50 in assay [1] turned out to be 74 nM. The half-maximal effective concentration (EC50) in assay [2] was > 10000 nM; in assay [3] it was 29 nM.

Turning to `O[C@@H](c1cc(Cl)cc2cncn12)[C@H]1CC[C@H](c2cccc3ccccc32)CC1` (single isomer, unassigned) [Example E103b], in assay [1], the IC50 worked out at 1400 nM. Further, the EC50 in assay [2] and in assay [3] was > 10000 nM throughout.

Take `CC(C)c1ccc2cncn2c1C(O)C1CCC(c2ccc(Cl)cc2)CC1` (stereo not drawn) [Example D115, (4-(4-chlorophenyl)cyclohexyl)(6-isopropylimidazo[1,5-a]pyridin-5-yl)methanol]: the IC50 in assay [1] was 57 nM. In addition, the EC50 in assay [2] was > 10000 nM; in assay [3], 157 nM.
